Common to all, as to format: cell-based
Experiment [1] deals with T1, F876L mutant Androgen Receptor (AR-F876L) (Homo sapiens (Human), UniProt P10275, F877L). As to the kind of experiment: LNCaP-AR-F876L ANT reporter assay (antagonist mode). Particulars: for IC50: pIC50 = −Log10(IC50 in Molar), read-out: LNCaP-AR-F876L ANT pIC50 (converted); for Emax: read-out: LNCaP-AR-F876L ANT MAX % Inh.
For experiment [2], the target named is T2, wild-type Androgen Receptor (AR-wt) (Homo sapiens (Human), UniProt P10275). As to the kind of experiment: LNCaP-AR-wt AG reporter assay (agonist mode). Conditions: for EC50: pEC50 = −Log10(EC50 in Molar), read-out: LNCaP-AR-wt AG pEC50 (converted); for Emax: read-out: LNCaP-AR-wt AG MAX % Stim.
T2 sequence (P10275 whole entry): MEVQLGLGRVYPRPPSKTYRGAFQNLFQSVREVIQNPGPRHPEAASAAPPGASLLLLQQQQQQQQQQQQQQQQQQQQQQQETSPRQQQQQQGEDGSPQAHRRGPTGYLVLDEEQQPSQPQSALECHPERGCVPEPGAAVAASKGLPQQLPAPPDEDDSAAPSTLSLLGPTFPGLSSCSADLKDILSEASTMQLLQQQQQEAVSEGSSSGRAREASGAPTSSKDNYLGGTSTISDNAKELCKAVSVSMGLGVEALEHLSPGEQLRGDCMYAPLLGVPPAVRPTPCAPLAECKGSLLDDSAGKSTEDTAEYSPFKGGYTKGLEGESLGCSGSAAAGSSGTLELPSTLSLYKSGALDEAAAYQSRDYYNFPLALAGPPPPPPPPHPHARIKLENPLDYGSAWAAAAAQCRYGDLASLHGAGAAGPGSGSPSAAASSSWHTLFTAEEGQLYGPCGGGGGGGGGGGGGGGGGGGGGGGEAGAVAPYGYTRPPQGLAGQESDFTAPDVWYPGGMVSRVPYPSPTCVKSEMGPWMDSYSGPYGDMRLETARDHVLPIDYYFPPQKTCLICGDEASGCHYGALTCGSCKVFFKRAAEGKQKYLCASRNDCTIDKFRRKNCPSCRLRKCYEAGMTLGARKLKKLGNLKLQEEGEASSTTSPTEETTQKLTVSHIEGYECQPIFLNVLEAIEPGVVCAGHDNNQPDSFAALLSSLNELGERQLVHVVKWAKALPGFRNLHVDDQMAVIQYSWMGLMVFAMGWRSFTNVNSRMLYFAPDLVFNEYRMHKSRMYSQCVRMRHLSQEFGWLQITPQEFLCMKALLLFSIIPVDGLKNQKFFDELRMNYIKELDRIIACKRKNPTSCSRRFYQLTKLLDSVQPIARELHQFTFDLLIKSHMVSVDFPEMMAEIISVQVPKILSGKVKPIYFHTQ
The target in experiment [3] is T2, wild-type Androgen Receptor (AR-wt). As to the kind of experiment: LNCaP-AR-wt ANT reporter assay (antagonist mode). Particulars: for IC50: pIC50 = −Log10(IC50 in Molar), read-out: LNCaP-AR-wt ANT pIC50 (converted); for Emax: read-out: LNCaP-AR-wt ANT MAX % Inh.
The target of experiment [4] is T1, F876L mutant Androgen Receptor (AR-F876L). The experiment is described as follows: LNCaP-AR-F876L AG reporter assay (agonist mode). Particulars: for EC50: pEC50 = −Log10(EC50 in Molar), read-out: LNCaP-AR-F876L AG pEC50 (converted); for Emax: read-out: LNCaP-AR-F876L AG MAX % Stim.
The mark [5] stands for this setting: maximum % inhibition of R1881 control response over the tested concentration range.
Setting [6] is: maximum % stimulation (agonist response) over the tested concentration range.
[7] abbreviates: antagonist mode, maximum % inhibition of R1881 control response over tested concentration range.
[8] abbreviates: agonist mode, maximum % stimulation over tested concentration range.

The results in this text go back to patent US10981926B2 (Janssen Pharmaceutica NV, priority 2016, dated 2021).

T1 sequence (P10275 whole entry F877L): as the sequence (P10275 whole entry) above, with F877L counted along it

Consider `N#Cc1ncc(N2C(=O)C3(CCC3)N(c3ccc(OCC4(N)COC4)cc3)C2=S)cc1C(F)(F)F` [Cpd 145, 5-[8-[4-[(3-aminooxetan-3-yl)methoxy]phenyl]-5-oxo-7-thioxo-6,8-diazaspiro[3.4]octan-6-yl]-3-(trifluoromethyl)pyridine-2-carbonitrile], for which the IC50 in experiment [1] (antagonist mode) is 302 nM; in experiment [3] (antagonist mode), 178 nM. Moreover, the Emax in experiment [1] (setting [5]) turned out to be 98.8%; in experiment [2] (setting [6]), 0.5%; in experiment [3] (setting [5]), 101%; in experiment [4] (setting [6]), 1.8%. Besides, the EC50 in experiment [2] (agonist mode) and in experiment [4] (agonist mode) was more than 15100 nM throughout.

With `CN1CCC(CNC(=O)c2ccc(N3C(=S)N(c4cnc(C#N)c(C(F)(F)F)c4)C(=O)C34CCC4)cc2F)CC1` [Cpd 201, 4-[6-[6-cyano-5-(trifluoromethyl)-3-pyridyl]-5-oxo-7-thioxo-6,8-diazaspiro[3.4]octan-8-yl]-2-fluoro-N-[(1-methyl-4-piperidyl)methyl]benzamide], the Emax was 101% in experiment [1] (setting [7]), -0.3% in experiment [2] (setting [8]), 101% in experiment [3] (setting [7]) and 0% in experiment [4] (setting [8]). Also, the IC50 in experiment [1] (antagonist mode) was 214 nM; in experiment [3] (antagonist mode) it was 355 nM. For the same compound, the EC50 in experiment [2] (agonist mode) and in experiment [4] (agonist mode) was more than 15100 nM throughout.

With `N#Cc1ncc(N2C(=O)C3(CCC3)N(c3ccc4ccn(CCO)c4c3)C2=S)cc1C(F)(F)F` [Cpd 250, 5-[8-[1-(2-hydroxyethyl)indol-6-yl]-5-oxo-7-thioxo-6,8-diazaspiro[3.4]octan-6-yl]-3-(trifluoromethyl)pyridine-2-carbonitrile], the Emax is 101% in experiment [1] (setting [7]), 0% in experiment [2] (setting [8]), 0% in experiment [3] (setting [7]) and 0.1% in experiment [4] (setting [8]). The values for the IC50 in experiment [1] (antagonist mode) and in experiment [3] (antagonist mode) were 977 nM and 1170 nM, respectively. For the same compound, the EC50 in experiment [2] (agonist mode) and in experiment [4] (agonist mode) was more than 15100 nM each time.

In the case of `Cn1c(CCO)nc2cc(N3C(=S)N(c4cnc(C#N)c(C(F)(F)F)c4)C(=O)C34CCC4)ccc21` [Cpd 255, 5-[8-[2-(2-hydroxyethyl)-1-methyl-benzimidazol-5-yl]-5-oxo-7-thioxo-6,8-diazaspiro[3.4]octan-6-yl]-3-(trifluoromethyl)pyridine-2-carbonitrile], the Emax was 99% in experiment [1] (setting [7]), 0.4% in experiment [2] (setting [8]), 94.7% in experiment [3] (setting [7]) and 0.1% in experiment [4] (setting [8]). Besides, the IC50 is 2750 nM in experiment [1] (antagonist mode) and 2510 nM in experiment [3] (antagonist mode). Also, the EC50 in experiment [2] (agonist mode) and in experiment [4] (agonist mode) was more than 15100 nM throughout.

For the compound `Cc1cc(N2C(=O)C3(CCC3)N(c3ccc(-c4cnn(C(N)=O)c4)cc3)C2=S)cnc1C#N` [Cpd 7, 4-{4-[7-(6-cyano-5-methyl(3-pyridyl))-8-oxo-6-thioxo-5,7-diazaspiro[3.4]oct-5-yl]phenyl}pyrazolecarboxamide], the IC50 in experiment [1] (antagonist mode) is 135 nM; in experiment [3] (antagonist mode), 288 nM. Moreover, the Emax in experiment [1] (setting [5]) worked out at 98.2%; in experiment [2] (setting [6]) it was 0.3%; in experiment [3] (setting [5]), 99.1%; in experiment [4] (setting [6]), 2.8%. For the same compound, the EC50 in experiment [2] (agonist mode) and in experiment [4] (agonist mode) was more than 15100 nM throughout.

As for `N#Cc1ncc(N2C(=O)C3(CCC3)N(c3ccc(OC4CCNCC4(F)F)cc3)C2=S)cc1C(F)(F)F` (racemic) [Cpd 136, (R,S)-5-[8-[4-[(3,3-difluoro-4-piperidyl)oxy]phenyl]-5-oxo-7-thioxo-6,8-diazaspiro[3.4]octan-6-yl]-3-(trifluoromethyl)pyridine-2-carbonitrile], the IC50 is 126 nM in experiment [1] (antagonist mode) and 132 nM in experiment [3] (antagonist mode). The Emax in experiment [1] (setting [5]) is 102%; in experiment [2] (setting [6]), -0.1%; in experiment [3] (setting [5]), 105%; in experiment [4] (setting [6]), 0.3%. Also, the EC50 in experiment [2] (agonist mode) and in experiment [4] (agonist mode) was more than 15100 nM each time.

`COc1cc(N2C(=O)C3(CCC3)N(c3ccc(OC4CCN(C)CC4)nc3)C2=S)cnc1C#N` [Cpd 25]: the Emax in experiment [1] (setting [5]) is 100%; in experiment [2] (setting [6]), 0%; in experiment [3] (setting [5]), 101%; in experiment [4] (setting [6]), 0.2%. Also, the EC50 in experiment [2] (agonist mode) and in experiment [4] (agonist mode) was more than 15100 nM each time.

As for `CN1CC(CCOc2ccc(N3C(=S)N(c4cnc(C#N)c(C(F)(F)F)c4)C(=O)C34CCC4)cc2)C1` [Cpd 142, 5-[8-[4-[2-(1-methylazetidin-3-yl)ethoxy]phenyl]-5-oxo-7-thioxo-6,8-diazaspiro[3.4]octan-6-yl]-3-(trifluoromethyl)pyridine-2-carbonitrile], the IC50 in experiment [1] (antagonist mode) was 117 nM; in experiment [3] (antagonist mode) it was 112 nM. Moreover, the Emax in experiment [1] (setting [5]) was 99%; in experiment [2] (setting [6]), -0.2%; in experiment [3] (setting [5]) it was 101%; in experiment [4] (setting [6]), 0.8%. Also, the EC50 in experiment [2] (agonist mode) and in experiment [4] (agonist mode) was more than 15100 nM in each case.

As for `Cc1cc(N2C(=O)C3(CCC3)N(c3cnc(OC4CCN(CCO)CC4)nc3)C2=S)cnc1C#N` [Cpd 254, 5-[8-[2-[[1-(2-hydroxyethyl)-4-piperidyl]oxy]pyrimidin-5-yl]-5-oxo-7-thioxo-6,8-diazaspiro[3,4]octan-6-yl]-3-methyl-pyridine-2-carbonitrile], the Emax in experiment [1] (setting [7]) was 99.3%; in experiment [2] (setting [8]), -0.1%; in experiment [3] (setting [7]), 0%; in experiment [4] (setting [8]), 0.4%. For the same compound, the results for the IC50 in experiment [1] (antagonist mode) and in experiment [3] (antagonist mode) were 708 nM and 891 nM, respectively. For the same compound, the EC50 in experiment [2] (agonist mode) and in experiment [4] (agonist mode) was more than 15100 nM throughout.

Turning to `COc1cc(N2C(=O)C3(CCC3)N(c3ccc4nn(C5CCN(C)CC5)cc4c3)C2=S)cnc1C#N` [Cpd 215, 3-methoxy-5-[8-[2-(1-methyl-4-piperidyl)indazol-5-yl]-5-oxo-7-thioxo-6,8-diazaspiro[3.4]octan-6-yl]pyridine-2-carbonitrile], the Emax in experiment [1] (setting [7]) was 101%; in experiment [2] (setting [8]), 0%; in experiment [3] (setting [7]) it was 101%; in experiment [4] (setting [8]), 0.1%. In addition, the figures for the IC50 in experiment [1] (antagonist mode) and in experiment [3] (antagonist mode) were 240 nM and 347 nM, respectively. In addition, the EC50 in experiment [2] (agonist mode) and in experiment [4] (agonist mode) was more than 15100 nM each time.

`CC(C)(C)OC(=O)N1CCC(CNC(=O)c2ccc(N3C(=S)N(c4cnc(C#N)c(C(F)(F)F)c4)C(=O)C34CCC4)cc2)CC1` [Cpd 46, tert-butyl 4-[[[4-[6-[6-cyano-5-(trifluoromethyl)-3-pyridyl]-5-oxo-7-thioxo-6,8-diazaspiro[3.4]octan-8-yl]benzoyl]amino]methyl]piperidine-1-carboxylate]: the IC50 in experiment [1] (antagonist mode) is 110 nM; in experiment [3] (antagonist mode), 219 nM. The Emax in experiment [1] (setting [5]) was determined as 97.6%; in experiment [2] (setting [6]) it was 1.1%; in experiment [3] (setting [5]), 101%; in experiment [4] (setting [6]), 0.3%. For the same compound, the EC50 in experiment [2] (agonist mode) and in experiment [4] (agonist mode) was more than 15100 nM in each case.

`CN1CC2CCC(C1)C2Oc1ccc(N2C(=S)N(c3cnc(C#N)c(C(F)(F)F)c3)C(=O)C23CCC3)cc1` (centres unmarked) [Cpd 146, 5-[8-[4-[(3-methyl-3-azabicyclo[3.2.1]octan-8-yl)oxy]phenyl]-5-oxo-7-thioxo-6,8-diazaspiro[3.4]octan-6-yl]-3-(trifluoromethyl)pyridine-2-carbonitrile]: the results for the IC50 in experiment [1] (antagonist mode) and in experiment [3] (antagonist mode) were 61.7 nM and 100 nM, respectively. Further, the Emax in experiment [1] (setting [5]) is 101%; in experiment [2] (setting [6]) it was 0.1%; in experiment [3] (setting [5]), 103%; in experiment [4] (setting [6]) it was -0.1%. The EC50 in experiment [2] (agonist mode) and in experiment [4] (agonist mode) was more than 15100 nM in each case.

Regarding `CN1CCC[C@H](Oc2ccc(N3C(=S)N(c4cnc(C#N)c(C(F)(F)F)c4)C(=O)C34CCC4)cc2)C1` [Cpd 20, 5-{8-[4-((3S)-1-methyl(3-piperidyloxy))phenyl]-5-oxo-7-thioxo-6,8-diazaspiro[3.4]oct-6-yl}-3-(trifluoromethyl)pyridine-2-carbonitrile], the IC50 was 513 nM in experiment [1] (antagonist mode) and 1820 nM in experiment [3] (antagonist mode). The Emax was 97.7% in experiment [1] (setting [5]), 0.2% in experiment [2] (setting [6]), 93.2% in experiment [3] (setting [5]) and -0.5% in experiment [4] (setting [6]). The EC50 in experiment [2] (agonist mode) and in experiment [4] (agonist mode) was more than 15100 nM throughout.

For `N#Cc1ncc(N2C(=O)C3(CCC3)N(c3ccc(OC4CCN(CCCF)CC4)cc3)C2=S)cc1C(F)(F)F` [Cpd 14, 5-(5-(4-((1-(3-fluoropropyl)piperidin-4-yl)oxy)phenyl)-8-oxo-6-thioxo-5,7-diazaspiro[3.4]octan-7-yl)-3-(trifluoromethyl)picolinonitrile], the IC50 is 234 nM in experiment [1] (antagonist mode) and 562 nM in experiment [3] (antagonist mode). For the same compound, the Emax in experiment [1] (setting [5]) was determined as 98.4%; in experiment [2] (setting [6]) it was 0.4%; in experiment [3] (setting [5]), 97.1%; in experiment [4] (setting [6]), 0.2%. For the same compound, the EC50 in experiment [2] (agonist mode) and in experiment [4] (agonist mode) was more than 15100 nM in each case.
